The values that follow come from ChEMBL document CHEMBL5512621, “Overview of the development of protein arginine methyltransferase modulators: Achievements and future directions” (Eur J Med Chem, 2024).

Test [1] deals with T1, Protein arginine N-methyltransferase 7 (Homo sapiens, UniProt Q9NVM4).
T1 sequence (Q9NVM4 whole entry): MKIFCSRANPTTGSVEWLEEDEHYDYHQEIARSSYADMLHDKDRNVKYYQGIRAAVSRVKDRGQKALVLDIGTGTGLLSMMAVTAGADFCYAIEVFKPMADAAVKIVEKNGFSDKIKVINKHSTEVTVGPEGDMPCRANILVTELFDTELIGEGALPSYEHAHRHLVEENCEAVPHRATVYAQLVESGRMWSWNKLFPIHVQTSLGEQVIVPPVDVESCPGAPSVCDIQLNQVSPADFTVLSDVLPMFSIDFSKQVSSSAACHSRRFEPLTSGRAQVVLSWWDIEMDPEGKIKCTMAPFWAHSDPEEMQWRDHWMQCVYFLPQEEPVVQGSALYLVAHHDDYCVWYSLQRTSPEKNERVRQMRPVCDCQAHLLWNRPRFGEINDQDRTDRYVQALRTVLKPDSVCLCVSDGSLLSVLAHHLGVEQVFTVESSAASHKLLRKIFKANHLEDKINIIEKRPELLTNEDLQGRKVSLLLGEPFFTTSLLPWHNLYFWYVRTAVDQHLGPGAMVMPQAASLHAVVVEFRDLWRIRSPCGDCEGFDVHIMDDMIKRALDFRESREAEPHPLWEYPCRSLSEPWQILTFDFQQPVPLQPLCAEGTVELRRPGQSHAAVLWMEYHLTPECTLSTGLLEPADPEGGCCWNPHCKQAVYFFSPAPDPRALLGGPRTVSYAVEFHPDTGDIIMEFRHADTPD
Kind of test: Inhibition of PRMT7 (unknown origin).

The next test deals with PC-3. Kind of test: Inhibition of cell growth in human PC-3 cells. The format is functional, cell-based.
Another test deals with JeKo-1. Kind of test: Inhibition of cell growth in human JeKo-1 cells. Format: functional, cell-based.
For another test, the system named is ES-2. The test is described as follows: Inhibition of cell growth in human ES2 cells. Format: functional, cell-based.
Test [2] has as its target T2, Protein arginine N-methyltransferase 7 (Mus musculus, UniProt Q922X9).
T2 sequence (Q922X9 whole entry): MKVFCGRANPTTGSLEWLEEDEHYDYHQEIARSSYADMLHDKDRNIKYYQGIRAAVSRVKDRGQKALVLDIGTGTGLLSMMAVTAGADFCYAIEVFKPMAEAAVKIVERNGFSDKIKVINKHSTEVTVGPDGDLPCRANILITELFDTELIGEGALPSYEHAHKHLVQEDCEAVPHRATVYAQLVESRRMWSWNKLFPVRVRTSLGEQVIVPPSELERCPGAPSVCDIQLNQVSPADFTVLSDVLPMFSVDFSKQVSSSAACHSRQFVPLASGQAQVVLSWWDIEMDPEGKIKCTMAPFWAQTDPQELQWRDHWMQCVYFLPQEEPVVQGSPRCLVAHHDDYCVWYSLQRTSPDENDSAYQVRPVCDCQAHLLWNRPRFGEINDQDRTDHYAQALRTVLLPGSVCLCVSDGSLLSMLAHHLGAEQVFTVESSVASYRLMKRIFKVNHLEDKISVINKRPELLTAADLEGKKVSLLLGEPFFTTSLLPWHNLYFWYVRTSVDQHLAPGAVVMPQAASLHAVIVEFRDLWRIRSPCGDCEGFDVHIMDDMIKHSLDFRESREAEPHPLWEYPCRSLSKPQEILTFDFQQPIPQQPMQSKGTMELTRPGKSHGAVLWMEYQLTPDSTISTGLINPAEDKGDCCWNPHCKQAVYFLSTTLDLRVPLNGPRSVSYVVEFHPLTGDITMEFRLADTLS
Kind of test: Inhibition of PRMT7 in mouse C2C12 cells assessed as reduction in HSP70 methylation. Format: cell-based.

As to `COc1cc(-c2ncc(F)c(Nc3ccc4cc(C)cc(N)c4c3)n2)cc(OC)c1OC`, the IC50 (commonly the midpoint of a concentration-inhibition curve) was 2100 nM in test [1], less than 10000 nM in the test on PC-3, less than 10000 nM with JeKo-1 and less than 10000 nM in the test with ES-2.

`CC1=C(C)C(=O)C(C(C)(C)CC(=O)N(CCCCSC[C@H]2O[C@@H](n3cnc4c(N)ncnc43)[C@H](O)[C@@H]2O)Cc2ccc(-c3ccc(Cl)cc3)cc2)=C(C)C1=O`: in test [2], the IC50 stood at 2400 nM.
